Measurements reported in paper PMC5011342, “A high throughput drug screening assay to identify compounds that promote oligodendrocyte differentiation using acutely dissociated and purified oligodendrocyte precursor cells” (BMC Research Notes, 2016).
Like-named read-outs stand apart in the source and are kept apart here.

Columns and labels:
[1] = test system: expanded OPCs; assay: cells; conditions: for viability at 0.1 µM / viability at 1 µM / viability at 10 µM: Rattus norvegicus, 72 h; for 0.1 µM (% DMSO) / 1 µM (% DMSO) / 10 µM (% DMSO): alamarBlue viability of expanded OPCs, relative to DMSO control; for 0.1 µM (% DMSO): compound at 0.1 µM; for 1 µM (% DMSO): compound at 1 µM; for 10 µM (% DMSO): compound at 10 µM
Procedure, shortened: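 Toxicity screen: compounds added at 0.1, 1 and 10 µM to PDGF-AA-expanded OPCs in 96-well plates, 3-day incubation at 37 °C, 10% CO2, then alamarBlue 1:10 for 4 h with fluorescence readout. Results set screening doses of 10/2, 2/0.4 or 0.4/0.08 µM.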

[2] = test system: acutely dissociated and purified rat OPCs; assay: Acute OL differentiation assay (MBP expression/cell, immunofluorescent image quantification); assay type: cell-based
Procedure, shortened: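 This acute differentiation assay used purified rat OPCs from postnatal day 6–7 pups, seeded into PDL/laminin-coated 96-well plates in differentiation medium lacking PDGF and FGF. Compounds were applied in quadruplicate after a 1–2 h preincubation at 37 °C, 10 % CO2, with 0.1 % DMSO negative and 40 ng/ml T3 positive controls in eight wells. After fixation on DIV4, anti-MBP immunofluorescence images yielded MBP expression/cell.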

[3] = read-out: 0.1 µM (% DMSO), alamarBlue viability, NCC library compound at 0.1 µM, sheet "All Tox data"
[4] = read-out: 1 µM (% DMSO), alamarBlue viability, NCC library compound at 1 µM, sheet "All Tox data"
[5] = read-out: 10 µM (% DMSO), alamarBlue viability, NCC library compound at 10 µM, sheet "All Tox data"
[6] = Rattus norvegicus, test compound at 0.08 uM, NCC library screen, sheet "All OLga data", relative to quetiapine, read-out: 0.08 uM (% Quet)
[7] = Rattus norvegicus, test compound at 0.4 uM, NCC library screen, sheet "All OLga data", relative to quetiapine, read-out: 0.4 uM (% Quet)
[8] = read-out: 0.1 µM (% DMSO), alamarBlue viability of expanded OPCs, compound at 0.1 µM, sheet All Tox data
[9] = read-out: 1 µM (% DMSO), alamarBlue viability of expanded OPCs, compound at 1 µM, sheet All Tox data
[10] = read-out: 10 µM (% DMSO), alamarBlue viability of expanded OPCs, compound at 10 µM, sheet All Tox data
[11] = Rattus norvegicus, 0.4 uM test compound, relative to quetiapine, sheet "All OLga data", read-out: OL differentiation, 0.4 uM (% Quet)
[12] = Rattus norvegicus, test compound at 2 uM, NCC library screen, sheet "All OLga data", relative to quetiapine, read-out: 2 uM (% Quet)
[13] = Rattus norvegicus, test compound at 10 uM, NCC library screen, sheet "All OLga data", relative to quetiapine, read-out: 10 uM (% Quet)
[14] = Rattus norvegicus, 0.08 uM test compound, relative to quetiapine, sheet "All OLga data", read-out: OL differentiation, 0.08 uM (% Quet)
[15] = Rattus norvegicus, 2 uM test compound, relative to quetiapine, sheet "All OLga data", read-out: OL differentiation, 2 uM (% Quet)
[16] = Rattus norvegicus, 10 uM test compound, relative to quetiapine, sheet "All OLga data", read-out: OL differentiation, 10 uM (% Quet)

Compound: COC(=O)C[C@](O)(CCCC(C)(C)O)C(=O)O[C@@H]1C(OC)=C[C@]23CCCN2CCc2cc4c(cc2[C@H]13)OCO4 [Homoharringtonine]
- viability at 0.1 µM [1, 3]: 10.7%
- viability at 1 µM [1, 4]: 9.9%
- viability at 10 µM [1, 5]: 9.6%
- activation at 0.08 µM [2, 6]: -112%
- activation at 0.4 µM [2, 7]: -172%

Compound: C=CCc1ccc(O)c(-c2ccc(O)c(CC=C)c2)c1 [Honokiol]
- viability at 0.1 µM [1, 8]: 95.4%
- viability at 1 µM [1, 9]: 78.2%
- viability at 10 µM [1, 10]: 11.4%
- activation at 0.4 µM [2, 11]: 9.1%

Compound: C/C=C1\[C@H]2C=C(C)C[C@]1(N)c1ccc(=O)[nH]c1C2 [Huperzine A]
- viability at 0.1 µM [1, 3]: 94.2%
- viability at 1 µM [1, 4]: 90%
- viability at 10 µM [1, 5]: 93.8%
- activation at 2 µM [2, 12]: -19.5%
- activation at 10 µM [2, 13]: -60.7%

Compound: NS(=O)(=O)c1cc2c(cc1Cl)NCNS2(=O)=O [Hydrochlorothiazide]
- 0.1 µM (% DMSO) [1]: 96.6 % DMSO
- 1 µM (% DMSO) [1]: 97.1 % DMSO
- 10 µM (% DMSO) [1]: 90.6 % DMSO
- activation at 2 µM ([2]; Rattus norvegicus, test compound at 2 uM, MBP expression relative to quetiapine, NCC library screen, sheet "All OLga data", read-out: 2 uM (% Quet)): -36%
- activation at 10 µM ([2]; Rattus norvegicus, test compound at 10 uM, MBP expression relative to quetiapine, NCC library screen, sheet "All OLga data", read-out: 10 uM (% Quet)): -46%

Compound: CCCC(=O)O[C@]1(C(=O)COC(=O)CC)CC[C@H]2[C@@H]3CCC4=CC(=O)CC[C@]4(C)[C@H]3[C@@H](O)C[C@@]21C [Hydrocortisone buteprate]
- 0.1 µM (% DMSO) [1]: 112.3 % DMSO
- 1 µM (% DMSO) [1]: 102.8 % DMSO
- 10 µM (% DMSO) [1]: 90.3 % DMSO
- activation at 2 µM [2, 12]: 19.4%
- activation at 10 µM [2, 13]: 13.5%

Compound: NS(=O)(=O)c1cc2c(cc1C(F)(F)F)NCNS2(=O)=O [Hydroflumethiazide]
- 0.1 µM (% DMSO) [1]: 104.6 % DMSO
- 1 µM (% DMSO) [1]: 96.9 % DMSO
- 10 µM (% DMSO) [1]: 87.1 % DMSO
- activation at 2 µM [2, 12]: -24.5%
- activation at 10 µM [2, 13]: -39%

Compound: O=C(O)c1cc2ccccc2c(Cc2c(O)c(C(=O)O)cc3ccccc23)c1O.OCCOCCN1CCN(C(c2ccccc2)c2ccc(Cl)cc2)CC1 [Hydroxyzine pamoate salt]
- 0.1 µM (% DMSO) [1]: 223.4 % DMSO
- 1 µM (% DMSO) [1]: 190.1 % DMSO
- 10 µM (% DMSO) [1]: 134.2 % DMSO
- 2 uM (% Quet) ([2]; test compound at 2 uM, NCC library screen, sheet "All OLga data", relative to quetiapine): 106.0 % Quet
- 10 uM (% Quet) ([2]; test compound at 10 uM, NCC library screen, sheet "All OLga data", relative to quetiapine): 16.6 % Quet

Compound: O=c1c(O[C@@H]2O[C@H](CO)[C@H](O)[C@H](O)[C@H]2O)c(-c2ccc(O)c(O)c2)oc2cc(O)cc(O)c12 [Hyperoside]
- viability at 0.1 µM [1, 8]: 90.3%
- viability at 1 µM [1, 9]: 29.8%
- viability at 10 µM [1, 10]: 14.6%
- activation at 0.08 µM [2, 14]: -14.3%
- activation at 0.4 µM [2, 11]: -70.9%

Compound: CC(C)Cc1ccc(C(C)C(=O)O)cc1 (centres unmarked) [Ibuprofen]
- 0.1 µM (% DMSO) [1]: 91.7 % DMSO
- 1 µM (% DMSO) [1]: 90.2 % DMSO
- 10 µM (% DMSO) [1]: 89.1 % DMSO
- activation at 2 µM [2, 12]: 12%
- activation at 10 µM [2, 13]: -9.8%

Compound: COc1ccc(-c2oc3c(CC=C(C)C)c(O[C@@H]4O[C@H](CO)[C@@H](O)[C@H](O)[C@H]4O)cc(O)c3c(=O)c2O[C@@H]2O[C@@H](C)[C@H](O)[C@@H](O)[C@H]2O)cc1 [Icariin]
- viability at 0.1 µM [1, 8]: 86.4%
- viability at 1 µM [1, 9]: 88.3%
- viability at 10 µM [1, 10]: 88.8%
- activation at 2 µM [2, 15]: 6.3%
- activation at 10 µM [2, 16]: 9.8%

Compound: COC1=C(OC)C(=O)C(CCCCCCCCCCO)=C(C)C1=O [Idebenone]
- viability at 0.1 µM [1, 8]: 99.7%
- viability at 1 µM [1, 9]: 80.9%
- viability at 10 µM [1, 10]: 11%
- activation at 0.4 µM [2, 11]: -11.1%

Compound: CC(C(O)c1ccc(O)cc1)N1CCC(Cc2ccccc2)CC1 (centres unmarked) [Ifenprodil, reference compound]
- viability at 0.1 µM [1, 8]: 93%
- viability at 1 µM [1, 9]: 135%
- viability at 10 µM [1, 10]: 103%
- activation at 2 µM [2, 15]: 162%
- activation at 10 µM [2, 16]: 154%
- EC50 ([2]; Rattus norvegicus, average EC50 for induction of OL differentiation from independent biological replicates, eight concentrations): 400 nM
- hit in OL differentiation assay, MRF-TMC ([2]; ● = confirmed hit in this paper's assay): ●

Compound: CC1Cc2ccccc2N1NC(=O)c1ccc(Cl)c(S(N)(=O)=O)c1 (centres unmarked) [Indapamide]
- viability at 0.1 µM [1, 3]: 95.2%
- viability at 1 µM [1, 4]: 92.1%
- viability at 10 µM [1, 5]: 101%
- activation at 2 µM [2, 12]: -10%
- activation at 10 µM [2, 13]: -12.4%

Compound: CNC1CC(c2ccc(Cl)c(Cl)c2)c2ccccc21 (centres unmarked) [Indatraline]
- viability at 0.1 µM [1, 8]: 75.5%
- viability at 1 µM [1, 9]: 41.1%
- viability at 10 µM [1, 10]: 11.7%
- activation at 0.08 µM [2, 14]: 15.3%
- activation at 0.4 µM [2, 11]: 24.5%

Compound: CC(C)(C)NC(=O)[C@@H]1CN(Cc2cccnc2)CCN1C[C@@H](O)C[C@@H](Cc1ccccc1)C(=O)N[C@H]1c2ccccc2C[C@H]1O [Indinavir]
- viability at 0.1 µM [1, 8]: 105%
- viability at 1 µM [1, 9]: 91.7%
- viability at 10 µM [1, 10]: 92.2%
- activation at 2 µM [2, 15]: 13.4%
- activation at 10 µM [2, 16]: -44.2%

Compound: O=C1Nc2ccccc2/C1=C1/Nc2ccccc2C1=O [Indirubin]
- viability at 0.1 µM [1, 3]: 97.6%
- viability at 1 µM [1, 4]: 78.2%
- viability at 10 µM [1, 5]: 46.3%
- activation at 0.4 µM [2, 11]: 26%
- activation at 2 µM [2, 15]: 108%

Compound: COc1ccc2c(c1)c(CC(=O)O)c(C)n2C(=O)c1ccc(Cl)cc1 [Indomethacin]
- viability at 0.1 µM [1, 8]: 81.3%
- viability at 1 µM [1, 9]: 85.4%
- viability at 10 µM [1, 10]: 87.1%
- activation at 2 µM [2, 15]: -10.2%
- activation at 10 µM [2, 16]: 2.6%

Compound: CC(C)Oc1ccc2c(=O)c(-c3ccccc3)coc2c1 [Ipriflavone]
- viability at 0.1 µM [1, 8]: 87.3%
- viability at 1 µM [1, 9]: 92.1%
- viability at 10 µM [1, 10]: 117%
- activation at 2 µM [2, 15]: 22.5%
- activation at 10 µM [2, 16]: 32%

Compound: CCCCC1=NC2(CCCC2)C(=O)N1Cc1ccc(-c2ccccc2-c2nnn[nH]2)cc1 [Irbesartan]
- viability at 0.1 µM [1, 3]: 88.9%
- viability at 1 µM [1, 4]: 92.8%
- viability at 10 µM [1, 5]: 89.7%
- activation at 2 µM [2, 15]: 0.6%
- activation at 10 µM [2, 16]: -16.7%

Compound: CCc1c2c(nc3ccc(OC(=O)N4CCC(N5CCCCC5)CC4)cc13)-c1cc3c(c(=O)n1C2)COC(=O)[C@]3(O)CC [Irinotecan]
- viability at 0.1 µM [1, 3]: 82.8%
- viability at 1 µM [1, 4]: 49.7%
- viability at 10 µM [1, 5]: 27.9%
- activation at 0.08 µM [2, 6]: -38.4%
- activation at 0.4 µM [2, 7]: -140%

Compound: Nc1nc(N)nc(-c2cc(Cl)ccc2Cl)n1 [Irsogladine]
- viability at 0.1 µM [1, 8]: 92.2%
- viability at 1 µM [1, 9]: 92.7%
- viability at 10 µM [1, 10]: 94.8%
- activation at 2 µM [2, 15]: 20.6%
- activation at 10 µM [2, 16]: 6.1%

Compound: NNC(=O)c1ccncc1 [Isoniazid]
- 0.1 µM (% DMSO) [1]: 98.2 % DMSO
- 1 µM (% DMSO) [1]: 98.4 % DMSO
- 10 µM (% DMSO) [1]: 66.3 % DMSO
- activation at 2 µM [2, 12]: -8.7%
- activation at 10 µM [2, 13]: 3.1%
